ChEMBL document CHEMBL4229566, “Discovery of ( S)-3-(3-(3,5-Dimethyl-1 H-pyrazol-1-yl)phenyl)-4-(( R)-3-(2-(5,6,7,8-tetrahydro-1,8-naphthyridin-2-yl)ethyl)pyrrolidin-1-yl)butanoic Acid, a Nonpeptidic αvβ6 Integrin Inhibitor for the Inhaled Treatment of Idiopathic Pulmonary Fibrosis” (J Med Chem, 2018)

Tests used:
[1] = Protein binding in human blood at 1 ug/ml after 4 hrs by LC-MS/MS analysis; format: ADME, tissue-based; conditions: at 1 µg/mL, read-out: PB (converted)
[2] = Blood clearance in Wistar Han rat at 1 mg/kg, iv via 30 mins infusion followed by 2 day washout and re-dosed via oral gavage at 3 mg/kg; format: ADME, organism-based; conditions: whole blood
[3] = Volume of distribution at steady state in Wistar Han rat at 1 mg/kg, iv via 30 mins infusion followed by 2 day washout and re-dosed via oral gavage at 3 mg/kg; format: ADME, organism-based; conditions: in vivo, read-out: Vdss
[4] = Terminal half life in Wistar Han rat at 1 mg/kg, iv dosed via 30 mins infusion; format: ADME, organism-based; conditions: in vivo, read-out: beta t1/2
[5] = Cmax in Wistar Han rat at 3 mg/kg, po via gavage; format: ADME, organism-based; parameters: dose 3 mg/kg, route oral; conditions: in vivo
[6] = Oral bioavailability in Wistar Han rat at 3 mg/kg via gavage; format: ADME, organism-based; conditions: in vivo
[7] = Cmax in Wistar Han rat nebulized with dose level of 0.227 mg/kg; format: ADME, organism-based; parameters: dose 0.227 mg/kg; conditions: in vivo, inhaled or intranasal
[8] = Bioavailability in Wistar Han rat nebulized with dose level of 0.227 mg/kg; format: ADME, organism-based; conditions: in vivo, inhaled or intranasal
[9] = Clearance in Beagle dog blood at 1 mg/kg, iv dosed via 60 mins infusion followed by 6 days washout and re-dosed via oral gavage at 1 mg/kg; format: ADME, organism-based, Canis lupus familiaris; conditions: whole blood
[10] = Volume of distribution at steady state in Beagle dog blood at 1 mg/kg, iv dosed via 60 mins infusion followed by 6 days washout and re-dosed via oral gavage at 1 mg/kg; format: ADME, organism-based, Canis lupus familiaris; conditions: whole blood, read-out: Vdss
[11] = Terminal half life in Beagle dog blood at 1 mg/kg, iv dosed via 60 mins infusion followed by 6 days washout and re-dosed via oral gavage at 1 mg/kg; format: ADME, organism-based, Canis lupus familiaris; conditions: whole blood, read-out: beta t1/2
[12] = Cmax in Beagle dog at 1 mg/kg, po via gavage; format: ADME, organism-based, Canis lupus familiaris; parameters: dose 1 mg/kg, route oral; conditions: in vivo
[13] = Tmax in Beagle dog blood at 1 mg/kg, iv dosed via 60 mins infusion followed by 6 days washout and re-dosed via oral gavage at 1 mg/kg; format: ADME, organism-based, Canis lupus familiaris; conditions: whole blood
[14] = Oral bioavailability in Beagle dog at 1 mg/kg via gavage; format: ADME, organism-based, Canis lupus familiaris; conditions: in vivo
Rattus norvegicus [15] = test: Total renal clearance in Wistar Han rat at 1 mg/kg, iv; format: ADME, organism-based; conditions: in vivo
Canis familiaris [16] = test: Total renal clearance in Beagle dog at 1 mg/kg, iv; format: ADME, organism-based, Canis lupus familiaris; conditions: in vivo
Rattus norvegicus [17] = test: Clearance in Wistar Han rat at 1 mg/kg, iv relative to liver blood flow; format: ADME, organism-based; conditions: in vivo
Canis familiaris [18] = test: Clearance in Beagle dog at 1 mg/kg, iv relative to liver blood flow; format: ADME, organism-based, Canis lupus familiaris; conditions: in vivo
[19] = Bioavailability in Wistar Han rat at 1 mg/kg, it measured after 12 hrs post dose; format: ADME, organism-based; conditions: in vivo, inhaled or intranasal
[20] = Bioavailability in Wistar Han rat at 0.227 mg/kg administered via nebulisation; format: ADME, organism-based; conditions: in vivo, inhaled or intranasal
[21] = Drug uptake in Wistar Han rat lung at 0.227 mg/kg administered via nebulisation after 7 hrs; format: ADME, organism-based; conditions: inhaled or intranasal, read-out: Drug uptake
[22] = Drug uptake in Wistar Han rat lung at 0.227 mg/kg administered via nebulisation up to 7 hrs; format: ADME, organism-based; conditions: in vivo, inhaled_or_intranasal
[23] = Drug uptake in Wistar Han rat lung at 6.23 mg/kg administered via nebulized inhalation for 60 mins and measured immediately after inhalation period by MALDI-MS analysis; format: ADME, organism-based; conditions: in vivo, inhaled_or_intranasal, 1 h
[24] = Drug uptake in Wistar Han rat lung at 6.23 mg/kg administered via nebulized inhalation for 60 mins and measured after 60 mins post inhalation period by MALDI-MS analysis; format: ADME, organism-based; conditions: in vivo, inhaled_or_intranasal, 1 h
[25] = Drug uptake in lung of C57Bl/6J mouse at 1.5 mg/kg/day, sc administered via continuous infusion through mini-pumps measured within 24 hrs; format: ADME, organism-based; conditions: in vivo
[26] = Drug uptake in lung of C57Bl/6J mouse at 15 mg/kg/day, sc administered via continuous infusion through mini-pumps measured within 24 hrs; format: ADME, organism-based; conditions: in vivo
[27] = Protein binding in mouse blood at 1 ug/ml after 4 hrs by rapid equilibrium dialysis and LC-MS/MS analysis; format: ADME, tissue-based; conditions: at 1 µg/mL, read-out: PB (converted)
[28] = Protein binding in rat blood at 1 ug/ml after 4 hrs by rapid equilibrium dialysis and LC-MS/MS analysis; format: ADME, tissue-based; conditions: at 1 µg/mL, read-out: PB (converted)
[29] = Protein binding in dog blood at 1 ug/ml after 4 hrs by rapid equilibrium dialysis and LC-MS/MS analysis; format: ADME, tissue-based, Canis lupus familiaris; conditions: at 1 µg/mL, read-out: PB (converted)
[30] = Protein binding in human blood at 1 ug/ml after 4 hrs by rapid equilibrium dialysis and LC-MS/MS analysis; format: ADME, tissue-based; conditions: at 1 µg/mL, read-out: PB (converted)
[31] = Protein binding in dog plasma at 1 ug/ml after 4 hrs by rapid equilibrium dialysis and LC-MS/MS analysis; format: ADME, cell-free, Canis lupus familiaris; conditions: at 1 µg/mL, read-out: PPB (converted)
[32] = Protein binding in human plasma at 1 ug/ml after 4 hrs by rapid equilibrium dialysis and LC-MS/MS analysis; format: ADME, cell-free; conditions: at 1 µg/mL, read-out: PPB (converted)
[33] = Protein binding in mouse lung at 1 ug/ml after 4 hrs by rapid equilibrium dialysis and LC-MS/MS analysis; format: ADME, tissue-based; conditions: at 1 µg/mL, read-out: PB (converted)
[34] = Protein binding in human lung at 1 ug/ml after 4 hrs by rapid equilibrium dialysis and LC-MS/MS analysis; format: ADME, tissue-based; conditions: at 1 µg/mL, read-out: PB (converted)
[35] = Protein binding in rat liver at 1 ug/ml after 4 hrs by rapid equilibrium dialysis and LC-MS/MS analysis; format: ADME, tissue-based; conditions: at 1 µg/mL, read-out: PB (converted)
[36] = Protein binding in rat kidneys at 1 ug/ml after 4 hrs by rapid equilibrium dialysis and LC-MS/MS analysis; format: ADME, tissue-based; conditions: rat kidney tissue, at 1 µg/mL, read-out: PB (converted)
[37] = Clearance in CD mouse liver microsomes at 0.5 uM up to 45 mins by LC-MS/MS analysis; format: ADME, microsome; conditions: 0.75 h
[38] = Clearance in Wistar Han rat liver microsomes at 0.5 uM up to 45 mins by LC-MS/MS analysis; format: ADME, microsome; conditions: 0.75 h
[39] = Clearance in Beagle dog liver microsomes at 0.5 uM up to 45 mins by LC-MS/MS analysis; format: ADME, Canis lupus familiaris, microsome; conditions: 0.75 h
[40] = Clearance in human liver microsomes at 0.5 uM up to 45 mins by LC-MS/MS analysis; format: ADME, microsome; conditions: 0.75 h
[41] = Clearance in CD mouse hepatocytes at 0.5 uM up to 60 mins by LC-MS/MS analysis; format: ADME, cell-based, Hepatocyte; conditions: 1 h
[42] = Clearance in Wistar Han rat hepatocytes at 0.5 uM up to 60 mins by LC-MS/MS analysis; format: ADME, cell-based, Hepatocyte; conditions: 1 h
[43] = Clearance in Beagle dog hepatocytes at 0.5 uM up to 60 mins by LC-MS/MS analysis; format: ADME, cell-based, Canis lupus familiaris, Hepatocyte; conditions: 1 h
[44] = Clearance in human hepatocytes at 0.5 uM up to 60 mins by LC-MS/MS analysis; format: ADME, cell-based, Hepatocyte; conditions: 1 h
Rattus norvegicus [45] = test: Biliary clearance in Wistar Han rat assessed as unchanged parent compound level at 1 mg/kg, iv relative to total blood clearance; format: ADME, organism-based; conditions: in vivo
in vivo [46] = conditions: Wistar Han, rat, po, 3 mg/kg
in vivo [47] = conditions: Wistar Han, rat, inhaled or intranasal, 0.227 mg/kg
Description: Tmax in Wistar Han rat nebulized with dose level of 0.227 mg/kg

[48] = Stability in solid state form at elevated temperatures and relative humidity conditions; format: physicochemical
[49] = Stability in saline at pH 4 at 50 degC; format: physicochemical; conditions: buffer
[50] = Stability in pH 5 to 7 solution under refrigerated conditions; format: physicochemical; conditions: buffer
[51] = molecular target: T1, Voltage-gated inwardly rectifying potassium channel KCNH2 (Homo sapiens, UniProt Q12809)
Description: Inhibition of human ERG expressed in HEK293 cells by Barracuda automated patch clamp assay

[52] = molecular target: T1, Voltage-gated inwardly rectifying potassium channel KCNH2; remark: listed apart in the source
Description: Inhibition of human ERG expressed in HEK293 cells by Q-patch assay

physchem = conditions: buffer, pH 7.4, logD

T1 sequence (Q12809 whole entry): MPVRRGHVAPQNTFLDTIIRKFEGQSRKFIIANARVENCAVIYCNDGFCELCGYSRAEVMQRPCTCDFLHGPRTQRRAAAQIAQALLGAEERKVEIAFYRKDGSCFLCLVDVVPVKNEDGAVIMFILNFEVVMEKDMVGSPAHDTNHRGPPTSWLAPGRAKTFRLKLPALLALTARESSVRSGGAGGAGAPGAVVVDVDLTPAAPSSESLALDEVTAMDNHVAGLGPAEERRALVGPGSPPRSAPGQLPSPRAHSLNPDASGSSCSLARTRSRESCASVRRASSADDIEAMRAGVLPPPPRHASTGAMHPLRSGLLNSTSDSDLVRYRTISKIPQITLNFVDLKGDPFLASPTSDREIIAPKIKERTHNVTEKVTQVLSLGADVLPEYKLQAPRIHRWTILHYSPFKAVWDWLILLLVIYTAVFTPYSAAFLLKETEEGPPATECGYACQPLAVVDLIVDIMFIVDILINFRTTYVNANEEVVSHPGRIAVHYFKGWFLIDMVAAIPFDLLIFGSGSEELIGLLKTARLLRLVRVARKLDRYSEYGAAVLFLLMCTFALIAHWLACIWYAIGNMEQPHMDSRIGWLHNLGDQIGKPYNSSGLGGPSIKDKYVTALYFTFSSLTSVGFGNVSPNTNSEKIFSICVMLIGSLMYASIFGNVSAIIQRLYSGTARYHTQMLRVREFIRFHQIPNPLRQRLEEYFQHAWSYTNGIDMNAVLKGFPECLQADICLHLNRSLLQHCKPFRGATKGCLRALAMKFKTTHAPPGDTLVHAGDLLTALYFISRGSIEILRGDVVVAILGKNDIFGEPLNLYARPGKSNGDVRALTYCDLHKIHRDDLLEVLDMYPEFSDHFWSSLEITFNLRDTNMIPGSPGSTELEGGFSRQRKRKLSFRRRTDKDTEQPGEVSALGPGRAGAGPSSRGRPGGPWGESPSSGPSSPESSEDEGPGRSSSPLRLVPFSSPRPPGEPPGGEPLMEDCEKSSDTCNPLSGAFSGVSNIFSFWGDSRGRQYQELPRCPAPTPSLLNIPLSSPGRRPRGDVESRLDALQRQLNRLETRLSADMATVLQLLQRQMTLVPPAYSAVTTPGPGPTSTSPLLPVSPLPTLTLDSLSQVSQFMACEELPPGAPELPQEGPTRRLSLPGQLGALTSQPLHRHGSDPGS

Cc1cc(C)n(-c2cccc([C@H](CC(=O)O)CN3CC[C@@H](CCc4ccc5c(n4)NCCC5)C3)c2)n1 [GSK-3008348 FREE BASE]
fraction unbound at 4 h, 1 ug/ml [1]: 0.08 | clearance [2]: 3.06 to 3.6 L/h/kg | Vd [3]: 1.8 to 2.3 L/kg | half-life [4]: 48 to 54 min | Cmax [5]: 0.003 to 0.009 µg/mL | bioavailability [6]: < 2% | Cmax [7]: 0.03 to 0.053 µg/mL | bioavailability [8]: 40 to 63% | clearance [9]: 1.5 to 1.98 L/h/kg | Vd [10]: 2.6 to 4.7 L/kg | half-life [11]: 72 to 324 min | Cmax [12]: 0.055 to 0.076 µg/mL | Tmax [13]: 15 to 30 min | bioavailability [14]: 27 to 34% | CL (Rattus norvegicus [15]): 15% | CL (Canis familiaris [16]): 21% | CL (Rattus norvegicus [17]): 70% | CL (Canis familiaris [18]): 50% | bioavailability [19]: 21% | bioavailability [20]: 54% | concentration at 7 h [21]: 10 ng/g | Drug uptake [22]: 716 ng | Drug uptake [23]: Active | Drug uptake [24]: Not Active | Drug uptake [25]: Active | Drug uptake [26]: Active | fraction unbound at 4 h, 1 ug/ml [27]: 0.211 | fraction unbound at 4 h, 1 ug/ml [28]: 0.294 | fraction unbound at 4 h, 1 ug/ml [29]: 0.228 | fraction unbound at 4 h, 1 ug/ml [30]: 0.083 | fraction unbound at 4 h, 1 ug/ml [31]: 0.4 | fraction unbound at 4 h, 1 ug/ml [32]: 0.036 | fraction unbound at 4 h, 1 ug/ml [33]: 0.1 | fraction unbound at 4 h, 1 ug/ml [34]: 0.108 | fraction unbound at 4 h, 1 ug/ml [35]: 0.085 | fraction unbound at 4 h, 1 ug/ml [36]: 0.027 | CLH [37]: 3 mL/min/g | CLH [38]: 0.55 mL/min/g | CLH [39]: < 0.53 mL/min/g | CLH [40]: 0.58 mL/min/g | CLH [41]: 15.3 mL/min/g | CLH [42]: 9.45 mL/min/g | CLH [43]: < 1.73 mL/min/g | CLH [44]: < 0.86 mL/min/g | CL (Rattus norvegicus [45]): 24% | Tmax (in vivo [46]): 30 to 120 min | Tmax (in vivo [47]): 12 min

Cc1cc(C)n(-c2cccc([C@H](CC(=O)O)CN3CC[C@@H](CCc4ccc5c(n4)NCCC5)C3)c2)n1.Cl [GSK-3008348]
Stability [48]: 4 weeks | Stability [49]: <= 6 weeks | Stability [50]: 6 weeks

O=C(O)C[C@H](CN1CC[C@@H](CCc2ccc3c(n2)NCCC3)C1)c1cccc(C2CCOC2)c1 (stereo in doubt; 28xI1)
IC50 [51]: 39.8 µM | IC50 [52]: 12.6 µM | logD (physchem): 2.56

Cc1ccnn1-c1cccc([C@H](CC(=O)O)CN2CC[C@@H](CCc3ccc4c(n3)NCCC4)C2)c1
fraction unbound at 4 h, 1 ug/ml [1]: 0.1

Cc1cc(C)n(-c2cc([C@H](CC(=O)O)CN3CC[C@@H](CCc4ccc5c(n4)NCCC5)C3)cc(N3CCOCC3)c2)n1
IC50 [51]: > 63.1 µM | logD (physchem): 2.73

Cc1nc(C)c(-c2cccc([C@H](CC(=O)O)CN3CC[C@@H](CCc4ccc5c(n4)NCCC5)C3)c2)[nH]1
fraction unbound at 4 h, 1 ug/ml [1]: 0.53 | IC50 [51]: > 50.1 µM | IC50 [52]: > 31.6 µM | logD (physchem): 1.77

O=C(O)C[C@H](CN1CC[C@@H](CCc2ccc3c(n2)NCCC3)C1)c1cccc(OC2COC2)c1
IC50 [51]: > 50.1 µM | IC50 [52]: > 31.6 µM | logD (physchem): 2.07
